# Test results reported in ChEMBL document CHEMBL1201862, “PubChem BioAssay data set” (2004).
#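 96-well plates; 48 h exposure; 5 concentrations. Endpoints by linear interpolation between flanking doses. Not reached: highest tested concentration assigned. GI50: concentration for 50% inhibition of growth.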 The source made the active and inactive calls. Cut-off read from the data, not from the text of the source: active = GI50 up to about 1.1 µM and inactive = higher.
# Assays:
# Experiment in all cases: growth of human tumour cells (NCI), 48 h
# MCF7 = test system: MCF7
# MOLT-4 = test system: MOLT-4
# UO-31 = test system: UO-31
# CAKI-1 = test system: CAKI-1
# MDA-MB-231 = test system: MDA-MB-231
# HCT-15 = test system: HCT-15
# T47D = test system: T47D
# SK-MEL-28 = test system: SK-MEL-28
# SNB-75 = test system: SNB-75
# IGROV-1 = test system: IGROV-1
# OVCAR-8 = test system: OVCAR-8
# 786-0 = test system: 786-0
# NCI-H226 = test system: NCI-H226
# COLO 205 = test system: COLO 205
# M14 = test system: M14
# HL-60 = test system: HL-60
# SF-268 = test system: SF-268
# Malme-3M = test system: Malme-3M
# A498 = test system: A498
Compound,GI50 (MCF7),GI50 (MOLT-4),GI50 (UO-31),GI50 (CAKI-1),GI50 (MDA-MB-231),GI50 (HCT-15),GI50 (T47D),GI50 (SK-MEL-28),GI50 (SNB-75),GI50 (IGROV-1),GI50 (OVCAR-8),GI50 (786-0),GI50 (NCI-H226),GI50 (COLO 205),GI50 (M14),GI50 (HL-60),GI50 (SF-268),GI50 (Malme-3M),GI50 (A498)
COc1cc(/C=C/C(=O)c2ccc(NS(=O)(=O)c3cc([N+](=O)[O-])ccc3C)cc2)cc(OC)c1OC,2.77 µM (inactive),1.85 µM (inactive),5.82 µM (inactive),3.74 µM (inactive),2.59 µM (inactive),3.04 µM,12.1 µM (inactive),8.43 µM (inactive),4.39 µM (inactive),3.88 µM (inactive),2.49 µM (inactive),2.74 µM (inactive),2.97 µM (inactive),4.26 µM (inactive),2.99 µM (inactive),3.37 µM (inactive),,,
COc1cc(-c2nc3ccccn3c2/N=C/c2cc(Br)cc(Br)c2O)ccc1O,22.3 µM (inactive),22.9 µM (inactive),13.7 µM (inactive),29.2 µM (inactive),15.6 µM (inactive),19 µM,23.3 µM (inactive),16.6 µM (inactive),24 µM (inactive),22.9 µM (inactive),23.4 µM (inactive),18 µM (inactive),24.1 µM (inactive),26.9 µM (inactive),18.2 µM (inactive),18.2 µM (inactive),14.3 µM (inactive),23.3 µM (inactive),
CCCS(=O)OC1C(C2COC(C)(C)O2)OC2OC(C)(C)OC21 (centres undefined),12.4 µM (inactive),1.63 µM (inactive),15 µM (inactive),11.6 µM (inactive),13.1 µM (inactive),13.7 µM,20.9 µM (inactive),14.5 µM (inactive),12.9 µM (inactive),14.3 µM (inactive),10.5 µM (inactive),13.2 µM (inactive),21.7 µM (inactive),11.7 µM (inactive),8.61 µM (inactive),,17.9 µM (inactive),9.59 µM (inactive),32.1 µM (inactive)
O=C1CC2CCC(C1)[S+]2[O-] (centres undefined),> 100 µM (inactive),> 100 µM (inactive),> 100 µM (inactive),> 100 µM (inactive),> 100 µM (inactive),> 100 µM,> 100 µM (inactive),> 100 µM (inactive),> 100 µM (inactive),> 100 µM (inactive),> 100 µM (inactive),> 100 µM (inactive),> 100 µM (inactive),> 100 µM (inactive),> 100 µM (inactive),> 100 µM (inactive),> 100 µM (inactive),> 100 µM (inactive),
CCc1ccccc1NC(=O)C(=O)CC(=O)c1sc(Nc2ccccc2Cl)nc1C,18.2 µM (inactive),14.9 µM (inactive),32.7 µM (inactive),46.1 µM (inactive),27 µM (inactive),30.6 µM,35.7 µM (inactive),36 µM (inactive),,40 µM (inactive),35.1 µM (inactive),27.7 µM (inactive),29 µM (inactive),22.2 µM (inactive),27.7 µM (inactive),47 µM (inactive),66.4 µM (inactive),,
COc1cccc2c1CCc1sc(CN3CCN(C)CC3)nc1-2,26.4 µM (inactive),22.4 µM (inactive),> 100 µM (inactive),> 100 µM (inactive),85.7 µM (inactive),83.6 µM,33.8 µM (inactive),49.7 µM (inactive),> 100 µM (inactive),> 100 µM (inactive),> 100 µM (inactive),78.5 µM (inactive),59.8 µM (inactive),61.2 µM (inactive),51.1 µM (inactive),,> 100 µM (inactive),> 100 µM (inactive),26.7 µM (inactive)
